# Laboratory results from PubChem BioAssay AID504609 (Sanford-Burnham Center for Chemical Genomics, 2011).
# Activity calls are given as the source filed them.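 Rule for the calls: active = IC50 under a set limit, which marks the compound as nonspecific in this counterscreen; inactive = the rest.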
# Target: SaOS-2 dox-inducible full-length luciferase, luminescence counterscreen
# Experiment: full-length luciferase signal inhibition, dose response, counter-screen for Mdm2/MdmX interaction inhibitor project, cell-based, SaOS-2, dox-inducible (AID 504609)
row,Compound,IC50
1,COCCn1c(C)cc(C2=NNC(=Nc3ccccc3F)SC2)c1C,0.137 µM
2,C/C(=N\Nc1cc(C)nc(-c2ccccc2O)n1)c1ccccc1O,11.5 µM
3,O=c1oc2ccccc2cc1-c1cn(-c2ccccc2)c(=S)[nH]1,2.38 µM
4,COc1cc(-c2nc(-c3ccc(NC(=O)c4ccc5c(c4)OCO5)cc3)no2)cc(OC)c1OC,3.87 µM
5,O=[N+]([O-])c1ccccc1S(=O)(=O)Nc1cccc2cccnc12,2.67 µM
6,O=C(/C=C/c1c(F)cccc1Cl)c1ccc(O)cc1,6.23 µM
7,CCN(CC)S(=O)(=O)c1ccc(NC(=O)c2cccnc2Cl)c(NC(=O)c2cccnc2Cl)c1,5.16 µM
8,CC(C)c1cccc(O)c(=O)c1,2.27 µM
9,Cc1cccn2c(=O)c3cc(C(=O)NCCc4ccccc4)c(=N)n(Cc4ccco4)c3nc12,3.58 µM
10,CC1(C)C(=O)Nc2ccccc2N1C(=O)Cn1ncc(Cl)c(Cl)c1=O,8.88 µM
11,CCOC(=O)/C=C/C(=O)OCC(=O)NC(c1ccccc1)c1ccccc1,2.41 µM
12,COc1ccc(-c2cc3c(=O)n(CC(=O)NCCCN4CCC(N5CCCCC5)CC4)nc(C)n3n2)cc1,15.5 µM
13,CCOC(=O)c1ccc(Nc2nc(N)c3cc(OC)c(OC)cc3n2)cc1,> 79 µM (inactive)
14,Cc1nc(NC2=NCN(CCCN3CCOCC3)CN2)nc2c(C)cccc12,13.8 µM
15,O=C(CN1CCCc2ccccc21)N/N=C/c1c(O)ccc2ccccc12,1.57 µM
16,Cn1nc([N+](=O)[O-])nc1Sc1nnc(-c2ccccc2)o1,7.44 µM
17,CCN1C/C(=C/c2ccc(OC)c(O)c2)C(=O)/C(=C/c2ccc(OC)c(O)c2)C1,7.64 µM
18,CC(=O)c1ccc(-c2ccc(C(=O)Nc3nc(-c4ccccn4)cs3)o2)cc1,5.78 µM
19,COc1ccc2c(c1)C1(Nc3ccccc3-c3nc4ccccc4n31)C(=O)N2C (stereo not given),1.75 µM
20,CCOc1cc(N2CCOCC2)c(OCC)cc1NC(=O)COc1cccc2cccnc12,12.5 µM
